Assay results: patent US20080031822A1, “Methods of modeling migraine pain and identifying candidate compounds for the treatment of migraine” (priority 2006, published 2008)

Key:
[1] = tested on: Male Sprague Dawley rats; assay: Dural inflammation migraine model, tactile hyperesthesia of the hindpaw (50% paw withdrawal threshold, von Frey filaments); format: in vivo, rat
[2] = tested on: Male Sprague Dawley rats; assay: Dural inflammation migraine model, facial tactile hyperesthesia (50% facial response threshold, von Frey filaments); format: in vivo, rat

SMILES: N[C@@H](CCC(=O)N[C@@H](CSN=O)C(=O)NCC(=O)O)C(=O)O [SNOG, s-nitrosylglutathione]
- tactile hyperesthesia of the hindpaw after administration to the dura ([1]; administered to the dura, results two hours after treatment (FIG. 4)): produced a tactile hyperesthesia effect similar to that induced by administration of the IM cocktail

SMILES: CCCCN1CCCCC1C(=O)Nc1c(C)cccc1C (stereo not shown) [bupivacaine]
- 50% paw withdrawal threshold versus control rats with dural IM cocktail only ([1]; administered in the RVM thirty minutes after IM cocktail (FIG. 9A)): increase in paw withdrawal threshold
- 50% paw withdrawal threshold versus control rats with dural IM cocktail only ([1]; administered in the RVM two hours after IM cocktail (FIG. 9B)): significant increase in test animal paw withdrawal threshold
- 50% facial response threshold versus control rats with dural IM cocktail only ([2]; administered in the RVM thirty minutes after IM cocktail (FIGS. 7A-7B)): increase in facial response threshold

SMILES: CNS(=O)(=O)Cc1ccc2[nH]cc(CCN(C)C)c2c1 [sumatriptan]
- 50% paw withdrawal threshold versus control rats with dural IM cocktail only ([1]; 0.6 mg/kg s.c. ten minutes prior to IM cocktail (FIG. 8)): increase in paw withdrawal threshold
- tactile hyperesthesia of the hindpaw induced by dural inflammation ([1]; sumatriptan succinate subcutaneously 1 mg/kg five minutes prior to dural IM cocktail, results two hours after dural treatment (FIG. 10)): attenuates tactile hyperesthesia of the hindpaw
- 50% facial response threshold versus control rats with dural IM cocktail only ([2]; systemic administration thirty minutes after IM cocktail (FIGS. 6A-6B)): increase in facial response threshold
